Reference: patent US20250281419A1, “LIPID AMINES” (ModernaTX, Inc., priority 2021, published 2025)

Test system: HeLa cells
Test: CFTR protein expression assay in HeLa cells (LNPs of Example 2, immunofluorescence)
Format: cell-based, Human
Settings: compared to buffer (PBS) control, 5 h transfection, 24 h incubation, N=4 wells
Experimental: Lipid nanoparticles were prepared using ethanol drop nanoprecipitation followed by solvent exchange into suitable aqueous buffer using dialysis. An exemplary lipid nanoparticle composition can be prepared by a process where lipids are dissolved in ethanol at a concentration of 12.5 mM and molar ratios of 33:15:11:39.5:1.5 (e.g., ionizable lipid:SA46:phospholipid:cholesterol:PL1). Lipid to mRNA is maintained at a N/P ratio of 4.9. Then mRNA is diluted with 25 mM sodium acetate (pH 5.0) and combined with the lipid mixture at a volume ratio of 3:1 (aqueous: ethanol). Resulting formulations are dialyzed against 20 mM tris/8% sucrose/70 mM sodium chloride (pH 7.4) at a volume of 300 times that of the primary product using Slide-A-Lyzer dialysis cassettes (Thermo Scientific, Rockford, IL, USA) with a molecular cutoff of 10 KDa for at least 18 h. The first dialysis is carried out at room temperature in a digital orbital shaker (VWR, Radnor, PA, USA) at 85 rpm for 3 h and then dialyzed overnight at 4° C. Formulations are concentrated using Amicon ultra-centrifugal filters (EMD Millipore, Billerica, MA, USA), passed through a 0.22-μm filter and stored at 4° C. until use. Lipid nanoparticle solutions are typically adjusted to specific mRNA concentrations between 0.1 and 1 mg/mL. LNPs were prepared according to Example 2. To evaluate LNP cellular uptake and protein expression in vitro, HeLa cells from ATCC.org (ATCC CCL-2) are used. The cells are cultured in complete Minimum Essential Medium (MEM) and are plated in 96 well Cell Carrier Ultra plate with PDL coated surface (PerkinElmer) prior to running an experiment. Buffer control (PBS) and LNPs encapsulating cystic fibrosis transmembrane conductance regulator (CFTR) mRNA were dosed with MEM media in the absence of serum (N=4 replicate wells). LNP transfected cells were incubated for 5 h, followed by media removal and supplementation with complete MEM media. Cells were further incubated in complete MEM media overnight (24 h). Following 24 hr incubation, the cells were fixed with PFA and processed for immunofluorescence (IF) using an anti-CFTR rabbit monoclonal antibody. Briefly, the cells were permeabilized with 0.5% TX-100 for 10 min, blocked with 3% bovine serum albumin (BSA)+PBST for 1 hr at room temperature, and incubated with primary anti-CFTR monoclonal antibody overnight at 4° C. Following primary antibody incubation, the cells were incubated with Alexa 488 conjugated secondary antibody for 30 min, and stained with DAPI and HCS CellMask Blue stain. Between different incubation steps the cells were either washed with PBS or PBST. Cells were imaged using Opera Phoenix spinning disk confocal microscope (PerkinElmer), and CFTR protein expression was detected using the 488 nm channel. The image analysis was performed in Harmony 4.9, with main analysis output being CFTR intensity per cell. The results shown in Table 3a show fold-change in CFTR signal intensity per cell compared to buffer (PBS) control (nanoparticle composition: IL1:Lipid Amine:DSPC:Chol:PL1). The results shown in Table 3b show fold-change in CFTR signal intensity per cell compared to buffer (PBS) control (nanoparticle composition: IL1:Lipid Amine:DPPC:Chol:PL1).

[1] = LNP IL1:Lipid Amine:DPPC:Chol:PL1 with CFTR mRNA
[2] = LNP IL1:Lipid Amine:DSPC:Chol:PL1 with CFTR mRNA

| SMILES | Average fold-change in CFTR signal intensity per cell ± standard deviation [1] [fold-change] | Average fold-change in CFTR signal intensity per cell ± standard deviation [2] [fold-change] |
| --- | --- | --- |
| CC[C@H](CC[C@@H](C)[C@H]1CC[C@H]2[C@@H]3CC=C4C[C@@H](OC(=O)NCCOCCN(C)C)CC[C@]4(C)[C@H]3CC[C@]12C)C(C)C [SA49, (3S,8S,9S,10R,13R,14S,17R)-17-((2R,5R)-5-Ethyl-6-methylheptan-2-yl)-10,13-dimethyl-2,3,4,7,8,9,10,11,12,13,14,15,16,17-tetradecahydro-1H-cyclopenta[a]phenanthren-3-yl (2-(2-(dimethylamino)ethoxy)ethyl)carbamate] | 1 ± 0.0 | 1.1 ± 0.0 |
| CC[C@H](CC[C@@H](C)[C@H]1CC[C@H]2[C@@H]3CC=C4C[C@@H](OC(=O)NCCN(CCO)CCO)CC[C@]4(C)[C@H]3CC[C@]12C)C(C)C [SA48, (3S,8S,9S,10R,13R,14S,17R)-17-((2R,5R)-5-Ethyl-6-methylheptan-2-yl)-10,13-dimethyl-2,3,4,7,8,9,10,11,12,13,14,15,16,17-tetradecahydro-1H-cyclopenta[a]phenanthren-3-yl (2-(bis(2-hydroxyethyl)amino)ethyl)carbamate] | 5.3 ± 1.0 | 4.4 ± 0.3 |
| CC[C@H](CC[C@@H](C)[C@H]1CC[C@H]2[C@@H]3CC=C4C[C@@H](OC(=O)NCC(C)(C)N(C)C)CC[C@]4(C)[C@H]3CC[C@]12C)C(C)C [SA53, (3S,8S,9S,10R,13R,14S,17R)-17-((2R,5R)-5-Ethyl-6-methylheptan-2-yl)-10,13-dimethyl-2,3,4,7,8,9,10,11,12,13,14,15,16,17-tetradecahydro-1H-cyclopenta[a]phenanthren-3-yl (2-(dimethylamino)-2-methylpropyl)carbamate] | 13.0 ± 1.2 | 4.4 ± 0.8 |
| CC[C@H](CC[C@@H](C)[C@H]1CC[C@H]2[C@@H]3CC=C4C[C@@H](OC(=O)NCC5(N(C)C)CC5)CC[C@]4(C)[C@H]3CC[C@]12C)C(C)C [SA54, (3S,8S,9S,10R,13R,14S,17R)-17-((2R,5R)-5-Ethyl-6-methylheptan-2-yl)-10,13-dimethyl-2,3,4,7,8,9,10,11,12,13,14,15,16,17-tetradecahydro-1H-cyclopenta[a]phenanthren-3-yl ((1-(dimethylamino)cyclopropyl)methyl)carbamate] | 1.3 ± 0.1 | 1.5 ± 0.1 |
| CC[C@H](CC[C@@H](C)[C@H]1CC[C@H]2[C@@H]3CC=C4C[C@@H](OC(=O)NCCCN(C)C)CC[C@]4(C)[C@H]3CC[C@]12C)C(C)C [SA46, (3S,8S,9S,10R,13R,14S,17R)-17-((2R,5R)-5-Ethyl-6-methylheptan-2-yl)-10,13-dimethyl-2,3,4,7,8,9,10,11,12,13,14,15,16,17-tetradecahydro-1H-cyclopenta[a]phenanthren-3-yl (3-(dimethylamino)propyl)carbamate] | 10.2 ± 0.2 | 4.7 ± 0.2 |
| CC[C@H](CC[C@@H](C)[C@H]1CC[C@H]2[C@@H]3CC=C4C[C@@H](OC(=O)NCCCCN(C)C)CC[C@]4(C)[C@H]3CC[C@]12C)C(C)C [SA47, (3S,8S,9S,10R,13R,14S,17R)-17-((2R,5R)-5-Ethyl-6-methylheptan-2-yl)-10,13-dimethyl-2,3,4,7,8,9,10,11,12,13,14,15,16,17-tetradecahydro-1H-cyclopenta[a]phenanthren-3-yl (4-(dimethylamino)butyl)carbamate] | 10.9 ± 0.4 | 4.6 ± 0.4 |
| CC[C@H](CC[C@@H](C)[C@H]1CC[C@H]2[C@@H]3CC=C4C[C@@H](OC(=O)NCC(C)(C)N)CC[C@]4(C)[C@H]3CC[C@]12C)C(C)C.Cl [SA55, (3S,8S,9S,10R,13R,14S,17R)-17-((2R,5R)-5-Ethyl-6-methylheptan-2-yl)-10,13-dimethyl-2,3,4,7,8,9,10,11,12,13,14,15,16,17-tetradecahydro-1H-cyclopenta[a]phenanthren-3-yl (2-amino-2-methylpropyl)carbamate Hydrochloride] | 12.1 ± 0.7 | 4.9 ± 0.2 |
